Test results as given in the NIST ThermoML archive (doi:10.1016/j.jct.2006.01.012).
± gives the expanded uncertainty stated by the source.

Settings: Liquid; for viscosity: Capillary tube (Ostwald / Ubbelohde) method; for mass density: isochoric method

CCCCCCCC [octane]
Settings	mass density [kg/m3]	viscosity [mPa·s]
298.24 K, 100 kPa	–	0.508 ± 0.017
301.84 K, 100 kPa	695.24 ± 0.85	–
308.72 K, 5000 kPa	–	0.4786 ± 0.016
308.72 K, 10000 kPa	–	0.5043 ± 0.017
311.89 K, 4680 kPa	691.6 ± 0.8	–
311.89 K, 10642 kPa	697.4 ± 0.9	–
316.49 K, 100 kPa	683.55 ± 0.83	–
323.93 K, 100 kPa	–	0.3829 ± 0.013
329.76 K, 100 kPa	672.69 ± 0.82	–
340.94 K, 100 kPa	663.24 ± 0.81	–
348.64 K, 100 kPa	–	0.3034 ± 0.01
349.46 K, 5000 kPa	–	0.3187 ± 0.01
349.46 K, 10000 kPa	–	0.3364 ± 0.011
358.76 K, 100 kPa	648.1 ± 0.8	–
367.61 K, 5873 kPa	648.8 ± 0.8	–
367.61 K, 11461 kPa	656.2 ± 0.8	–
394.81 K, 5000 kPa	–	0.2197 ± 0.0073
394.81 K, 10000 kPa	–	0.2334 ± 0.0077
436.86 K, 5000 kPa	–	0.1672 ± 0.0056
436.86 K, 10000 kPa	–	0.1799 ± 0.006
437.97 K, 6430 kPa	589.6 ± 0.7	–
437.97 K, 11084 kPa	599.5 ± 0.7	–
467.46 K, 5000 kPa	–	0.1338 ± 0.0045
467.46 K, 10000 kPa	–	0.1458 ± 0.0049
516.64 K, 5712 kPa	505.4 ± 0.6	–
516.64 K, 9791 kPa	525.2 ± 0.6	–

CCCCCCC [heptane]
Settings	mass density [kg/m3]	viscosity [mPa·s]
298.24 K, 100 kPa	–	0.388 ± 0.013
302.46 K, 100 kPa	675.91 ± 0.82	–
306.79 K, 5000 kPa	–	0.3779 ± 0.012
306.79 K, 10000 kPa	–	0.4013 ± 0.013
307.61 K, 4760 kPa	676.1 ± 0.8	–
307.61 K, 11941 kPa	683.2 ± 0.8	–
314.57 K, 100 kPa	665.62 ± 0.81	–
323.93 K, 100 kPa	–	0.2979 ± 0.0098
329.71 K, 100 kPa	652.43 ± 0.8	–
337.54 K, 5000 kPa	–	0.28 ± 0.01
337.54 K, 10000 kPa	–	0.2978 ± 0.0098
342.94 K, 100 kPa	640.61 ± 0.78	–
348.64 K, 100 kPa	–	0.2354 ± 0.0078
353.76 K, 100 kPa	630.86 ± 0.77	–
369.35 K, 5000 kPa	–	0.2116 ± 0.007
369.35 K, 10000 kPa	–	0.2259 ± 0.0075
387 K, 5783 kPa	610 ± 0.7	–
387 K, 12460 kPa	620.7 ± 0.8	–
407.85 K, 5000 kPa	–	0.1595 ± 0.0053
407.85 K, 10000 kPa	–	0.1718 ± 0.0057
449.64 K, 5000 kPa	–	0.122 ± 0.004
449.64 K, 10000 kPa	–	0.1338 ± 0.0045
450.12 K, 4350 kPa	543.7 ± 0.7	–
450.12 K, 11492 kPa	564.4 ± 0.7	–
473.54 K, 5000 kPa	–	0.1012 ± 0.0035
473.54 K, 10000 kPa	–	0.113 ± 0.004
500.47 K, 6791 kPa	492.7 ± 0.6	–
500.47 K, 10720 kPa	512.8 ± 0.6	–
